# B1: trypsin (protein, UniProt P00761 9-231, looked up)
# Trypsin: IVGGYTCAANSIPYQVSLNSGSHFCGGSLINSQWVVSAAHCYKSRIQVRLGEHNIDVLEGNEQFINAAKIITHPNFNGNTLDNDIMLIKLSSPATLNSRVATVSLPRSCAAAGTECLISGWGNTKSSGSSYPSLLQCLKAPVLSDSSCKSSYPGQITGNMICVGFLEGGKDSCQGDSGGPVVCNGQLQGIVSWGYGCAQKNKPGVYTKVCNYVNWIQQTIAAN
# modifications: EDTA solution
# notes: hydrolytic / digestive enzyme; solution containing trypsin (Thermo, Trypsin/EDTA (0.05%))
# Experiments:
# [1] = tested on: CAPRIN-1 protein on the membrane surface of the cancer cells; test: Flow cytometry of CAPRIN-1 protein on the membrane surface of HCT-116 treated with low molecular weight compounds; format: cell-based, human; details: 1 to 3 days, vs DMSO negative control
# Procedure: (§1) 2×10^5 cancer cells suspended in Dulbecco's PBS(−) containing 1% fetal bovine serum (hereinafter, 1% FCS-PBS(−)) were reacted with an antibody against CAPRIN-1 at a concentration of 1 to 10 μg/mL, and then allowed to react on ice (or at 4° C.) for 1 hour.
# After the antibody reaction, cells were washed with 1% FCS-PBS (−) and then reacted with a fluorescently labeled anti-IgG secondary antibodies (FITC Goat anti-rabbit IgG (BD Biosciences, 554020), Alexa Fluor 488 anti-rabbit IgG (H+L) (Invitrogen, A21206), Alexa Fluor 647 anti-rabbit IgG (BioLegend, 406414). Alexa Fluor 488 F(ab′)2 anti-mouse IgG (H+L) (Invitrogen, A11017) or Alexa Fluor 488 anti-human IgG (H+L) (Invitrogen, A11013) at a concentration of 1 to 10 μg/mL for reaction with an antibody against CAPRIN-1, followed by 1 hour of reaction on ice (or at 4° C.). After reaction with the fluorescently labeled secondar antibodies, cells were washed with 1% FCS-PBS(−) and then reacted with a PI (propidium iodide) solution (DOJINDO, 341-07881) or Fixable Viability Stain 450 (BD Horizon) prepared at a concentration of 0.1 μg/mL for 15 minutes. Cells were then washed with 1% FCS-PBS(−) and then the scattered light intensity and fluorescence intensity were measured using a flow cytometer according to a standard method.
# [2] = tested on: HCT-116; test: Antitumor effect in HCT-116 cancer-bearing nude mice; format: in vivo; details: HCT-116 subcutaneous in nude mice; 10 mg/kg twice a week into the tail vein
# Procedure: The antitumor effect of Dorsomorphin, which was an AMPK inhibitor, confirmed in Example 9 to have the effect of reducing the expression of the CAPRIN-1 protein on the membrane surface of the cancer cells, was confirmed. HCT-116, which were the cancer cells confirmed to express the CAPRIN-1 protein on the cell membrane surface were cultured in a normal culture flask using a complete medium containing 10% fetal bovine serum according to a standard method, and then mixed with RPMI-1640 medium containing 20% Matrigel Basement Membrane Matrix (Corning, 354234), and 1 to 2×10^7 cancer cells per mouse were subcutaneously inoculated into nude mice under anesthesia. After the cancer cells were inoculated, the size of the cancer in each cancer-bearing mouse was measured over time using a vernier caliper, and the tumor volume was calculated for each individual mouse using the formula: (length of the long axis of the cancer)×(length of the short axis of the cancer) 2×0.5 according to a standard method, and the average value of the administration group was calculated. After the cancer cells were inoculated, Dorsomorphin was administered at 10 mg/kg twice a week into the tail vein of each cancer-bearing mouse whose tumor size reached 100 to 200 mm^3 or more. […]
# [3] = tested on: CAPRIN-1 protein on the cell membrane surface; test: Flow cytometry of CAPRIN-1 protein on the cell membrane surface after trypsin treatment; format: cell-based, human; details: Trypsin/EDTA (0.05%) for 5 minutes, vs cells not treated
# Procedure: as §1, with “The expression of the CAPRIN-1 protein on the cell membrane surface of the cancer cells for which the expression of the CAPRIN-1 gene was confirmed in Example 1 was confirmed by flow cytometry. 2×10^5” for “2×10^5”, “hour. […]” for “hour.”
# SK-MEL-5 and OVCAR3, which were the cancer cells confirmed to express the CAPRIN-1 protein on the cell membrane surface in Example 3, were cultured in a normal culture flask using a complete medium containing 10% fetal bovine serum under an environment of 37° C. and 5% CO2. […] Portions of the collected cells were treated with a solution containing trypsin, which was a digestive enzyme, (Thermo, Trypsin/EDTA (0.05%)) for 5 minutes, and then the proportions of live cells and dead cells stained with trypan blue were measured and calculated using the trypan blue exclusion method according to a standard method, and then the cell density of live cells was calculated. […]
# [4] = tested on: OVCAR3; test: Soft agar colony formation assay (anchorage-independent colony-forming ability), OVCAR3; format: cell-based, human; details: OVCAR3 treated with trypsin vs not treated, 2 to 4 weeks
# Procedure: (§2) 10^4 cells of each of the above cells were suspended in DMEM medium gel containing 10% fetal bovine serum containing 0.4% soft agar (Difco, 214220), added to a Petri dish with a diameter of 35 mm, and then incubated under an environment of 37° C. and 5% CO2 for 2 to 4 weeks. After incubation, the number of colonies formed in the gel was counted.
# [5] = tested on: SK-MEL-5; test: Soft agar colony formation assay (anchorage-independent colony-forming ability), SK-MEL-5; format: cell-based, human; details: SK-MEL-5 treated with trypsin vs not treated, 2 to 4 weeks
# Procedure: as §2
# SK-MEL-5, winch were the cancer cells confirmed to express the CAPRIN-1 protein on the cell membrane surface in Example 3, was cultured in a normal culture flask using a complete medium containing 10% fetal bovine serum under an environment of 37° C. and 5% CO2. The cultured SK-MEL-5 was collected from the flask using a cell scraper. […] On the other hand, […], SK-MEL-5, […], was used to evaluate the anchorage-independent colony-forming ability by soft agar colony formation assay. 10^4 cells of each of the above cells were suspended in a DMEM medium gel containing 10% fetal bovine serum containing 0.4% soft agar (Difco, 214220), added to a Petri dish with a diameter of 35 mm, and then incubated under an environment of 37° C. and 5% CO2 for 2 to 4 weeks.
molecule,measurement,setting,value
Cn1c2cccc(=O)c-2nc2ccccc21 [Pyocyanin],expression of the CAPRIN-1 protein on the membrane surface of the cancer cells,[1]; final concentration 20 μM,clearly reduced
c1cc(-c2cnn3cc(-c4ccc(OCCN5CCCCC5)cc4)cnc23)ccn1 [Dorsomorphin],"tumor size, when the tumor size of the untreated cancer-bearing mice was taken as 100%",[2],≤ 70%
COc1cccc(-c2cc(NCc3ccc4c(c3)OCO4)nc(N)n2)c1 [Wnt agonist 1],expression of the CAPRIN-1 protein on the membrane surface of the cancer cells,[1]; final concentration 20 μM,clearly reduced
O=C(N/N=C/c1ccc(O)c(O)c1)c1cc2ccccc2cc1O [Dynasore],expression of the CAPRIN-1 protein on the membrane surface of the cancer cells,[1]; final concentration 100 μM,clearly reduced
CCN(CC)CCCC(C)Nc1nc(C)cc(Nc2ccc3nc(C)cc(N)c3c2)n1.Cl.Cl.Cl (racemic) [Rac1 inhibitor (CAS #1177865-17-6)],expression of the CAPRIN-1 protein on the membrane surface of the cancer cells,[1]; final concentration 250 nM,clearly reduced
FC(F)(F)c1ccc(/C=C/c2nc(COc3ccc(CCCCn4ccnn4)cc3)co2)cc1 [Mubritinib],expression of the CAPRIN-1 protein on the membrane surface of the cancer cells,[1]; final concentration 1 μM,clearly reduced
COc1ccc(CNC(=O)Nc2ncc([N+](=O)[O-])s2)cc1 [GSK-3D inhibitor VIII],expression of the CAPRIN-1 protein on the membrane surface of the cancer cells,[1]; final concentration 10 μM,clearly reduced
Cc1ccc(C(=O)Cn2c3c(sc2=N)CCCC3)cc1 [Pifithrin-α],expression of the CAPRIN-1 protein on the membrane surface of the cancer cells,[1]; final concentration 30 μM,clearly reduced
Cc1cc(-c2ccc(CC(=O)Nc3ccc(-c4cccnc4)cc3)cc2)ccn1 [Wnt-C59],expression of the CAPRIN-1 protein on the membrane surface of the cancer cells,[1]; final concentration 5 μM,clearly reduced
B1,expression of the CAPRIN-1 protein on the cell membrane surface,[3]; OVCAR3,reduced
same,expression of the CAPRIN-1 protein on the cell membrane surface,[3]; SK-MEL-5,reduced
same,number of colonies formed,[4],significantly lower
same,number of colonies formed,[5],significantly lower

# Source: US20260240962A1, “PHARMACEUTICAL COMPOSITION FOR TREATING AND/OR PREVENTING CANCER” (TORAY INDUSTRIES, INC., priority 2023, published 2026)
